According to US20210353595A1, “USE OF MELATONIN IN PREPARATION OF MEDICAMENT FOR INHIBITING AND/OR KILLING BACTERIUM” (priority 2020, published 2021):
Values after ≈ are worked out from the molar mass of the structure shown.

What was measured:
Pasteurella multocida [1] = experiment: Bacteriostatic activity, bacterial growth curve (OD600); assay type: cell-based; conditions: MT 1, 1.5 and 2 mg/mL (lower than MBC); OD600 every 2 hours; FIG. 1
Protocol: In order to further verify the bacteriostatic activity of melatonin against Pasteurella multocida, the bacterial growth curve was determined in view of an increase of melatonin concentration. […] Then the bacteria were cultured in a shaker at a constant temperature of 37° C. at 220 rpm, and the bacterial culture was determined for OD600 every 2 hours with an ultraviolet spectrophotometer to detect the effect of melatonin on the bacterial growth curve. Each experiment was carried out for three times, and each group was set in triplicate.

Pasteurella multocida [2] = experiment: Leakage of bacterial cell contents; assay type: cell-based; conditions: MT 1-10 mg/mL, 12 h
Protocol: 1 mL of Pasteurella multocida (1×10^9 CFU) at the logarithmic growth stage was added into 100 mL of fresh and sterile Martin broth medium containing different concentrations (1 mg/mL, 2 mg/mL, 3 mg/mL, 4 mg/mL, 6 mg/mL, 8 mg/mL and 10 mg/mL) of MT. Melatonin-free DMSO was used as a solvent control group, ampicillin (100 μg/mL) was used as a positive control group, and bacterial cells were cultured in a shaker at 37° C. and 220 rpm for 12 h. Thereafter, 1 mL of the bacterial solution was taken and centrifuged at 3000 r/min for 10 minutes, and the supernatant and precipitated cells were collected, respectively. At the same time, 2.5 mmol/mL of o-nitrophenyl-β-D-galactopyranoside (ONPG) and Pasteurella multocida were added to detect β-galactosidase. The concentrations of protein, alkaline phosphatase (AKP) and reducing sugar in the supernatant were determined sequentially using respective determination kits. The β-galactosidase in the supernatant was determined by measuring the optical density at 420 nm (OD420). Each experiment was carried out for three times, and each group was set in triplicate.

Pasteurella multocida [3] = experiment: Prevention and treatment of Pasteurella multocida infection in mice; assay type: in vivo, C57BL/6 mice
Protocol: C57 mice purchased from the Third Military Medical University were randomly divided into four groups (10 mice in each group): a group of Pasteurella multocida+solvent control, a group of Pasteurella multocida+MT (30 mg/kg), a group of Pasteurella multocida+MT (60 mg/kg), and a group of Pasteurella multocida+MT (120 mg/kg). Before Pasteurella multocida infection, MT was injected intraperitoneally to the experimental group (injection once in the morning) for consecutive 7 days (P) or 6 days (P-1), while the control mice received the equal amount of DMSO. Thereafter, mice were infected by intraperitoneal injection of suspension of Pasteurella multocida ([…]). The survival rate of mice within 7 days was monitored and recorded. Blood samples were collected from mice, and the serum was stored at −20° C. for later ELISA test. Lung samples were collected and homogenized aseptically, and then the bacterial load was quantified by serial dilution, plate inoculation and CFU counting.
Mice were randomly divided into four groups (10 mice in each group) as described in #1, described above. In the experimental group, after infection with 2.2×10^5 CFU of Pasteurella multocida through intraperitoneal injection, MT was injected intraperitoneally for four times, with the first injection 30 minutes after Pasteurella multocida infection, then the injection was performed once every 6 hours, for three times in total. Control mice were given an equal amount of DMSO at the same four time points. Subsequently, the survival rate of mice within 7 days was recorded. At the same time, mice were euthanized at 12 h, 16 h, 24 h and 32 h after infection to collect tissue and serum samples for later ELISA and bacterial count analysis.
In order to measure the colonization of mouse lung bacteria before and after melatonin treatment, the lung tissues of mice were collected 24 hours and 32 hours after infection. The tissues were homogenized under aseptic conditions, and the bacterial content was determined by continuous dilution of 10 times in saline. […]

Acinetobacter baumannii = experiment: MIC/MBC bacteriostatic and bactericidal test; assay type: cell-based
Protocol: (§1) 1 mL of a fresh suspension of bacteria (1×10^9 CFU) at the logarithmic growth stage was added into 100 mL containing different concentrations (50 mg/mL, 25 mg/mL, 12.5 mg/mL, 6.25 mg/mL, 3.125 mg/mL, 1.5625 mg/mL, 0.78125 mg/mL, 0.390625 mg/mL) of melatonin. A melatonin (MT)-free solution diluted with DMSO was used as a control group. The samples were shaken at 37° C. and a rotation speed of 120 r/min with protection from light for 12 hours, and then subjected to detection of the minimal inhibitory concentration (MIC) of MT on bacteria. Then, 0.1 mL of the aforementioned transparent bacterial solution was pipetted onto a sterilized agar plate of a specific culture medium and coated evenly, incubated in an incubator at 37° C. for 24 hours, and then subjected to detection of the minimum bactericidal concentration (MBC) of MT on pathogens, wherein the minimum concentration of MT at which no bacterium grew was the MBC of MT on pathogens. Each experiment was carried out for 3 times, and each group was set in triplicate.

Pseudomonas aeruginosa = experiment: MIC/MBC bacteriostatic and bactericidal test; assay type: cell-based
Protocol: as §1

Pasteurella multocida [4] = experiment: MIC/MBC bacteriostatic and bactericidal test; assay type: cell-based
Protocol: as §1

[5] = system: Salmonella enteritidis (ATCC85090); experiment: MIC/MBC bacteriostatic and bactericidal test; assay type: cell-based; conditions: Salmonella enterica
Protocol: as §1

[6] = system: Escherichia coli C83902 (ATCC72864); experiment: MIC/MBC bacteriostatic and bactericidal test; assay type: cell-based
Protocol: as §1

[7] = system: Listeria monocytogenes (ATCC53005); experiment: MIC/MBC bacteriostatic and bactericidal test; assay type: cell-based
Protocol: as §1

Streptococcus pneumoniae = experiment: MIC/MBC bacteriostatic and bactericidal test; assay type: cell-based
Protocol: as §1

Pneumococcus = experiment: MIC/MBC bacteriostatic and bactericidal test; assay type: cell-based
Protocol: as §1

Lactobacillus johnsonii = experiment: MIC/MBC bacteriostatic and bactericidal test; assay type: cell-based
Protocol: as §1

[8] = system: Avianpathogenic Escherichia coli; experiment: MIC/MBC bacteriostatic and bactericidal test; assay type: cell-based; conditions: 12 h
Protocol: as §1

Bacillus cereus = experiment: MIC/MBC bacteriostatic and bactericidal test; assay type: cell-based
Protocol: as §1

In the case of `COc1ccc2[nH]cc(CCNC(C)=O)c2c1` [melatonin, N-acetyl-5-methoxytryptamine], the “bacterial growth (growth curve, OD600)” value (Pasteurella multocida [1]) is reported as “significantly inhibits bacterial growth”, the “activity of extracellular β-galactosidase” value (Pasteurella multocida [2]; OD420, FIG. 7) is reported as “increase” and the “content of extracellular proteins” value (Pasteurella multocida [2]; supernatant, FIG. 4) is reported as “increase”. For the same compound, the “content of extracellular alkaline phosphatase” value (Pasteurella multocida [2]; supernatant, FIG. 6) was “increase”, the “content of extracellular reducing sugar” value (Pasteurella multocida [2]; supernatant, FIG. 8) was “increase” and the “activity of extracellular ATPase” value (Pasteurella multocida [2]; FIG. 5) was “increase”. For the same compound, the “bacterial colonization in the lung tissues of mice” value (Pasteurella multocida [3]; 24 hours and 32 hours after infection, prevention and treatment groups vs DMSO group) was “significantly reduced”, the “decrease of bacterial colonization amount (CFU/g)” value (Pasteurella multocida [3]; dose of 120 mg/kg, lung tissues) was “about 2 log 10” and the “survival rates of mice” value (Pasteurella multocida [3]; prevention and treatment groups vs DMSO group, intraperitoneal, FIGS. 29-34) was “significantly improved”. The MIC (Acinetobacter baumannii; 37° C., 12 hours) was 12.5 mg/mL (≈ 53.8 mM), the MBC (Acinetobacter baumannii; agar plate 37° C., 24 hours) was 12.5 mg/mL (≈ 53.8 mM) and the MIC (Pseudomonas aeruginosa; 37° C., 12 hours) was 12.5 mg/mL (≈ 53.8 mM). It also gave an MBC (Pseudomonas aeruginosa; agar plate 37° C., 24 hours) of 12.5 mg/mL (≈ 53.8 mM), an MIC (Pasteurella multocida [4]; 37° C., 12 hours) of 1.56 mg/mL (≈ 6.73 mM) and an MBC (Pasteurella multocida [4]; agar plate 37° C., 24 hours, no bacterium grew) of 3.12 mg/mL (≈ 13.5 mM). For the same compound, the MIC ([5]; 37° C., 12 hours) was 12.5 mg/mL (≈ 53.8 mM), the MBC ([5]; agar plate 37° C., 24 hours) was 12.5 mg/mL (≈ 53.8 mM) and the MIC ([6]; 37° C., 12 hours) was 12.5 mg/mL (≈ 53.8 mM). It also gave an MBC ([6]; agar plate 37° C., 24 hours) of 25 mg/mL (≈ 108 mM), an MIC ([7]; 37° C., 12 hours) of 12.5 mg/mL (≈ 53.8 mM) and an MBC ([7]; agar plate 37° C., 24 hours) of 50 mg/mL (≈ 215 mM). It also gave an MIC (Streptococcus pneumoniae; 37° C., 12 hours) of 12.5 mg/mL (≈ 53.8 mM), an MBC (Streptococcus pneumoniae; agar plate 37° C., 24 hours) of 25 mg/mL (≈ 108 mM) and an MIC (Pneumococcus; 37° C., 12 hours) of 12.5 mg/mL (≈ 53.8 mM). It also gave an MBC (Pneumococcus; agar plate 37° C., 24 hours) of 25 mg/mL (≈ 108 mM), an MIC (Lactobacillus johnsonii; 37° C., 12 hours) of 25 mg/mL (≈ 108 mM) and an MBC (Lactobacillus johnsonii; agar plate 37° C., 24 hours) of 50 mg/mL (≈ 215 mM). For the same compound, the MIC [8] was 6.25 mg/mL (≈ 26.9 mM), the MIC (Bacillus cereus; 37° C., 12 hours) was 6.25 mg/mL (≈ 26.9 mM) and the MBC (Bacillus cereus; agar plate 37° C., 24 hours) was 12.5 mg/mL (≈ 53.8 mM).
